Data from patent publication US4419508A, “20-Dihydro-20-deoxy-23-demycinosyltylosin and process for its production” (Eli Lilly and Company, priority 1981, dated 1983).
Values after ≈ are worked out from the molar mass of the structure shown. “Also recorded” adds a separate entry of the source. Where two headings read alike, the source gives them in different places.

How the values were obtained:
[1] = tested on: Streptococcus pneumoniae Park 1; format: cell-based
[2] = tested on: Haemophilus influenzae 76; format: cell-based
[3] = tested on: pathogenic bacteria, especially gram-positive bacteria and Mycoplasma species; test: Antibacterial activity (in words); format: cell-based; settings: qualitative statement
Text: (§1) Table 3 summarizes the minimal inhibitory concentrations (MIC), as measured by standard agar-dilution assays, at which DH-DO-DMT and DH-DO-OMT (as free bases) inhibit certain bacteria.

[4] = tested on: Escherichia coli TEM; format: cell-based
[5] = tested on: Escherichia coli EC14; format: cell-based; settings: free base, agar dilution
Text: as §1

[6] = tested on: Shigella sonnei N9; format: cell-based; settings: free base, agar dilution
Text: as §1

[7] = tested on: Escherichia coli N10; format: cell-based; settings: free base, agar dilution
Text: as §1

[8] = tested on: Klebsiella pneumoniae KAE; format: cell-based; settings: free base, agar dilution
Text: as §1

[9] = tested on: Haemophilus influenzae C.L.; format: cell-based
[10] = tested on: Klebsiella pneumoniae X26; format: cell-based
[11] = tested on: Staphylococcus epidermidis EPI2; format: cell-based; settings: free base, agar dilution
[12] = tested on: Streptococcus pyogenes C203; format: cell-based
[13] = tested on: Staphylococcus epidermidis EPI1; format: cell-based
[14] = tested on: Staphylococcus aureus V41; format: cell-based
[15] = tested on: Streptococcus faecium ATCC 9790; format: cell-based; settings: Enterococcus faecium, ATCC9790
[16] = tested on: Staphylococcus aureus X400; format: cell-based
[17] = tested on: Staphylococcus aureus NRRL B313; format: cell-based; settings: NRRLB313
[18] = Solubility; format: physicochemical; settings: for solubility in polar organic solvents: free bases, acetone, methanol, ethanol, chloroform, dimethylformamide, dimethyl sulfoxide; for solubility in water: free bases (rows) or acid addition salts (sets)
[19] = tested on: Streptococcus sp. group D 9960; format: cell-based
[20] = tested on: Propionibacterium acnes 79; test: MIC against anaerobic bacteria, standard agar-dilution assay; format: cell-based; settings: Cutibacterium acnes, end point after 24 hours
[21] = tested on: Clostridium difficile 2994; test: as above; format: cell-based; settings: Clostridioides difficile, end point after 24 hours
[22] = tested on: Bacteroides fragilis 1936B; test: as above; format: cell-based; settings: end point after 24 hours
[23] = tested on: Streptococcus pneumoniae Park I; test: In vivo activity against experimental infections in mice; settings: po
[24] = tested on: Eubacterium aerofaciens 1235; test: MIC against anaerobic bacteria, standard agar-dilution assay; format: cell-based; settings: Collinsella aerofaciens, end point after 24 hours
[25] = tested on: Clostridium perfringens 81; test: microbe, parasite or virus in culture; format: cell-based; settings: Clostridium perfringens, 81, 24 h
[26] = tested on: Staphylococcus aureus 3055; test: In vivo activity against experimental infections in mice; settings: two doses
[27] = tested on: Fusobacterium necrophorum 6054A; test: MIC against anaerobic bacteria, standard agar-dilution assay; format: cell-based; settings: end point after 24 hours
[28] = tested on: Bacteroides melaninogenicus 2736; test: as above; format: cell-based; settings: end point after 24 hours
[29] = tested on: Bacteroides fragilis 111; test: as above; format: cell-based; settings: end point after 24 hours
[30] = tested on: Bacteroides melaninogenicus 1856/28; test: as above; format: cell-based; settings: end point after 24 hours
[31] = tested on: Peptostreptococcus anaerobius 1428; test: as above; format: cell-based; settings: end point after 24 hours
[32] = tested on: M. synoviae; test: MIC against Mycoplasma species; format: cell-based; settings: Mycoplasmopsis synoviae
Text: (§2) In addition, DH-DO-OMT inhibits Mycoplasma species.

[33] = tested on: M. gallisepticum; test: MIC against Mycoplasma species; format: cell-based; settings: Mycoplasmoides gallisepticum
Text: as §2

[34] = tested on: Peptococcus asaccharolyticus 1302; test: MIC against anaerobic bacteria, standard agar-dilution assay; format: cell-based; settings: Peptoniphilus asaccharolyticus, end point after 24 hours
[35] = tested on: Bacteroides vulgatis 1211; test: as above; format: cell-based; settings: end point after 24 hours
[36] = tested on: Peptostreptococcus intermedius 1264; test: as above; format: cell-based; settings: end point after 24 hours
[37] = tested on: Streptococcus pyogenes C203; test: In vivo activity against experimental infections in mice; settings: free base, oral, two doses, bacterial challenge 64 LD50
[38] = tested on: Chlamydia trachomatis; test: MIC, Chlamydia trachomatis grown in cell culture; format: cell-based
Text: as §2

[39] = tested on: Bacteroides fragilis 1877; test: MIC against anaerobic bacteria, standard agar-dilution assay; format: cell-based; settings: end point after 24 hours
[40] = tested on: Fusobacterium symbiosum 1470; test: as above; format: cell-based; settings: end point after 24 hours
[41] = tested on: Bacteroides corrodens 1874; test: as above; format: cell-based; settings: Eikenella corrodens, end point after 24 hours
[42] = tested on: Bacteroides thetaiotaomicron 1438; test: as above; format: cell-based; settings: Bacteroides thetaiotaomicron, 1438, 24 h
Protocol: (§3) Table 4 summarizes the MIC's at which DH-DO-OMT inhibits these bacteria. The MIC's were determined using a standard agar-dilution assay and reading the end point after 24 hours.

[43] = tested on: Clostridium septicum 1128; test: as above; format: cell-based; settings: end point after 24 hours
Protocol: as §3

[44] = tested on: Peptococcus prevoti 1281; test: as above; format: cell-based; settings: end point after 24 hours
Protocol: as §3

CCC1CC(C)C(=O)C=CC(C)=CC(CO)C(CC)OC(=O)CC(O)C(C)C1OC1OC(C)C(OC2CC(C)(O)C(O)C(C)O2)C(N(C)C)C1O (stereo not drawn) [DH-DO-DMT, 20-dihydro-20-deoxy-23-demycinosyltylosin]
MIC ([1]; PARK1): > 128 µg/mL
MIC ([2]; Haemophilus influenzae, 76): > 128 µg/mL
antibacterial activity [3]: inhibit the growth of pathogenic bacteria, especially gram-positive bacteria and Mycoplasma species; also recorded: some antibacterial activity; also recorded: active against gram-positive microorganisms and Mycoplasma species
MIC ([4]; Escherichia coli): > 128 µg/mL
MIC [5]: > 128 µg/mL
MIC [6]: > 128 µg/mL
MIC [7]: > 128 µg/mL
MIC [8]: > 128 µg/mL
MIC ([9]; Haemophilus influenzae): > 128 µg/mL
MIC ([10]; Klebsiella pneumoniae, X26): > 128 µg/mL
MIC [11]: 64 µg/mL (≈ 87.9 µM)
MIC ([12]; Streptococcus pyogenes, C203): > 128 µg/mL
MIC [13]: 128 µg/mL (≈ 176 µM)
MIC ([14]; Staphylococcus aureus, V41): 128 µg/mL (≈ 176 µM)
MIC [15]: > 128 µg/mL
MIC ([16]; Staphylococcus aureus, X400): > 128 µg/mL
MIC ([17]; Staphylococcus aureus): 128 µg/mL (≈ 176 µM)
solubility in polar organic solvents [18]: soluble in water and in most polar organic solvents
solubility in water [18]: soluble in water
MIC ([19]; Streptococcus): > 128 µg/mL

CCC1CC(C)C(=O)C=CC(C)=CC(CO)C(CC)OC(=O)CC(O)C(C)C1OC1OC(C)C(O)C(N(C)C)C1O (stereo not drawn) [DH-DO-OMT, 20-Dihydro-20-deoxy-5-O-mycaminosyltylonolide]
MIC ([1]; PARK1, read-out: MIC): 8 µg/mL (≈ 13.7 µM)
MIC ([2]; free base, agar dilution, Haemophilus influenzae 76, read-out: MIC): 16 µg/mL (≈ 27.4 µM)
MIC [20]: 2 µg/mL (≈ 3.43 µM)
MIC [21]: 2 µg/mL (≈ 3.43 µM)
MIC [22]: > 8 µg/mL
ED50 [23]: 224 mg/kg
antibacterial activity [3]: inhibit the growth of pathogenic bacteria, especially gram-positive bacteria and Mycoplasma species; also recorded: active against gram-positive microorganisms and Mycoplasma species
MIC ([4]; free base, agar dilution, Escherichia coli TEM, read-out: MIC): 64 µg/mL (≈ 110 µM)
MIC [5]: > 128 µg/mL
MIC [6]: > 128 µg/mL
MIC [7]: > 128 µg/mL
MIC [8]: > 128 µg/mL
MIC [24]: 2 µg/mL (≈ 3.43 µM)
MIC ([9]; free base, agar dilution, Haemophilus influenzae C.L., read-out: MIC): 16 µg/mL (≈ 27.4 µM)
MIC [25]: 2 µg/mL (≈ 3.43 µM)
ED50 ([26]; Staphylococcus aureus, 3055, free base, oral, bacterial challenge 100 LD50): 44 mg/kg
ED50 ([26]; Staphylococcus aureus, 3055, sc, free base, subcutaneous, bacterial challenge 221 LD50): 37.3 mg/kg
MIC [27]: 8 µg/mL (≈ 13.7 µM)
MIC [28]: > 8 µg/mL
MIC [29]: > 8 µg/mL
MIC [30]: > 8 µg/mL
MIC [31]: > 8 µg/mL
MIC [32]: 12.5 µg/mL (≈ 21.4 µM)
MIC [33]: 12.5 µg/mL (≈ 21.4 µM)
MIC ([10]; free base, agar dilution, Klebsiella pneumoniae X26, read-out: MIC): 4 µg/mL (≈ 6.85 µM)
MIC [34]: > 8 µg/mL
MIC [35]: > 8 µg/mL
MIC [36]: > 8 µg/mL
MIC [11]: 8 µg/mL (≈ 13.7 µM)
ED50 [37]: 75.3 mg/kg
MIC [38]: 0.5 µg/mL (≈ 0.857 µM)
MIC ([12]; free base, agar dilution, Streptococcus pyogenes C203, read-out: MIC): 8 µg/mL (≈ 13.7 µM)
MIC ([13]; read-out: MIC): 8 µg/mL (≈ 13.7 µM)
MIC ([14]; free base, agar dilution, Staphylococcus aureus V41, read-out: MIC): 4 µg/mL (≈ 6.85 µM)
MIC ([15]; free base, agar dilution, Streptococcus faecium ATCC 9790, read-out: MIC): 16 µg/mL (≈ 27.4 µM)
MIC ([16]; free base, agar dilution, Staphylococcus aureus X400, read-out: MIC): 8 µg/mL (≈ 13.7 µM)
MIC ([17]; free base, agar dilution, Staphylococcus aureus NRRL B313, read-out: MIC): 4 µg/mL (≈ 6.85 µM)
solubility in polar organic solvents [18]: soluble in water and in most polar organic solvents
solubility in water [18]: soluble in water
MIC [39]: > 8 µg/mL
MIC [40]: > 8 µg/mL
MIC ([19]; free base, agar dilution, Streptococcus sp. group D 9960, read-out: MIC): 16 µg/mL (≈ 27.4 µM)
MIC [41]: > 8 µg/mL
MIC [42]: > 8 µg/mL
MIC [43]: 2 µg/mL (≈ 3.43 µM)
MIC [44]: > 8 µg/mL
